Assay results as given in the NIST ThermoML archive (doi:10.1016/j.fluid.2014.08.002).
± gives the expanded uncertainty stated by the source.

Conditions: 298.15 K; 101.3 kPa; Liquid; Vibrating tube method

SMILES	mass density [kg/m3]
CCO [ethanol]	789.5 ± 0.2
CCCCCCC [heptane]	683.8 ± 0.3
CC1(C)OCCO1 [2,2-dimethyl-1,3-dioxolane]	944.2 ± 0.3
Cc1ccccc1 [toluene]	866.9 ± 0.2
